From PubChem BioAssay AID1918934 (Molecular Pharmacology Branch, DTP, NCI, 2023)
pIC50: −log10 of the molar value. Several values for one entry are separate records, joined by “and”; a condition that tells them apart may be missing. Equal entries are not always repeated.

Test system: 292921-168-R-J2-PDC complex spheroid viability
Assay: Anticancer human tumor 292921-168-R-J2-PDC patient-derived pancreatic carcinoma cell line growth inhibition
Details: for viability, T/C: stronger effect = lower value; for pIC50: curve of compound
From the text: Multicellular complex tumor spheroid response to LSD1 Inhibitor Iadademstat in combination with a variety of drugs and investigational agents in selected tumor cell lines
The current study was undertaken to assess response to LSD1 inhibitors in combination with standard-of-care drugs and investigational agents in solid tumor complex spheroid models as well as in the K-562 leukemia. Complex spheroids include a stromal component modeled by human endothelial cells (HUVEC) and fibroblasts modeled by human mesenchymal stem cells (MSCs). The concentration ranges selected for each drug and investigational agent were based upon clinically achievable concentrations if the clinical Cmax of the agent was known.
Compounds. The drugs and investigational agents used in this study are listed on Table 1. All of the agents used, including staurosporine (NSC755774) and gemcitabine (NSC613327), were obtained from the Developmental Therapeutics Program, NCI. FDA-approved anticancer drugs are available from the NCI at http://dtp.nci.nih.gov/branches/dscb/oncology_drugset_explanation.html. Drugs and investigational agents were >95% pure by proton nuclear magnetic resonance (NMR) and liquid chromatography/mass spectrometry (LC/MS). Stock solutions were prepared at 400x in DMSO, stored at -70 degrees C, and diluted in fresh medium prior to their use. The final concentration of DMSO in cell culture wells never exceeded 0.25% (v/v). The FDA-approved anticancer drug set is available from the Developmental Therapeutics Program at https://dtp.cancer.gov/organization/dscb/obtaining/available_plates.htm. All drugs and investigational agents were tested over a range starting from a high concentration at or near the clinical Cmax and decreasing in half-log increments. If the clinical Cmax for an agent had not been determined, the highest concentration tested was 10 microM.
Cell Lines. The patient-derived cancer cell (PDC) lines: 292921-168-R-J2-PDC, K24384-001-R-PDC, and 521955-158-R2-J5-PDC pancreatic carcinomas, 556581-035-R-J1 ovarian carcinoma, 324938-238-R-J1-PDC, 855422-203-R-J1-PDC and 883617-216-R-J1-PDC urothelial bladder carcinomas, 743489-274-T-PDC renal cell carcinoma, 138582-R-J1 Merkel cell tumor, K60290-347-R-J1 and K57222-313-R-J1-PDC glioblastomas, 653999-131-R-J2-PDC, LG0703-F948-PDC, and 349418-098-R-PDC non-small cell lung carcinomas, 885512-296-R-J2-PDC, 171881-019-R-J1-PDC breast carcinomas and 186277-243-T-J2-PDC and 233499-124-R-J2-PDC colon carcinomas were obtained from the NCI Patient-Derived Models Repository (PDMR, https://pdmr.cancer.gov). The established cell lines NCI/ADR-RES (RRID:CVCL_14520 and OVCAR-5 (RRID:CVCL_1628) ovarian carcinomas, 786-O (RRID:CVCL_1051) and A498 (RRID:CVCL_A498) renal cell carcinoma, NCI-H211 (ATCC, cat. CRL-5824; RRID:CVCL_1529), NCI-H196 (ATCC, cat. CRL-5823, RRID:CVCL_1509), SW 1271 (ATCC, cat. CRL-2177, RRID:CVCL_1716) and NCI-H1876 (ATCC, cat. CRL-5902, RRID:CVCL_1503) small cell lung carcinomas, MDA-MB-231 (RRID:CVCL_0062) and MDA-MB-468 (RRID:CVCL_0419)breast carcinomas (10-12). Pooled donor human umbilical vein endothelial cells (HUVEC, Lonza, cat. CC-2519) and human mesenchymal stem cells (hMSC, Lonza, cat. PT-2501) were purchased from Lonza (Walkersville, MD).
Cell Culture. All cells were maintained in an incubator at 37 degrees C and 5% CO2 with 95% humidity. The PDC lines were cultured according to standard operating procedures established by the NCI PDMR (https://pdmr.cancer.gov). Briefly all PDCs were thawed and cultured in Matrigel-coated flasks prepared with a working solution of 1X Ham's F-12 nutrient mix, without supplementation (Invitrogen, Waltham, MA, cat. 11765054), 100 U/mL penicillin-streptomycin (Invitrogen, cat. 15140122), and 2.5% Matrigel (Corning Inc., Corning, NY, cat. 354248) for the first three passages. […]
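Note: seven day compound exposure before luminescent viability read.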
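Throughout, for viability, T/C: 100% = DMSO vehicle control wells.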

Row | Compound | viability, T/C (compound 0.000316 µM) | viability, T/C (compound 0.001 µM) | viability, T/C (compound 0.00316 µM) | viability, T/C (compound 0.01 µM) | viability, T/C (compound 0.0316 µM) | viability, T/C (compound 0.1 µM) | pIC50 | viability, T/C (compound 0.316 µM) | viability, T/C (compound 1 µM) | viability, T/C (compound 3.16 µM) | viability, T/C (compound 10 µM) | viability, T/C (compound 0.00949 µM) | viability, T/C (compound 0.03 µM) | viability, T/C (compound 0.0949 µM) | viability, T/C (compound 0.3 µM) | viability, T/C (compound 0.949 µM) | viability, T/C (compound 3 µM) | viability, T/C (compound 0.000949 µM) | viability, T/C (compound 0.003 µM)
1 | CC(C)CC(NC(=O)C(Cc1ccccc1)NC(=O)c1cnccn1)B(O)O (configuration not stated) | 18.8% and 20.7% | 0.9% and 1.54% | 0.34% and 1.04% | 0.42% and 0.8% | 0.19% and 0.21% | 0.21% | > 9.50 | – | – | – | – | – | – | – | – | – | – | – | –
2 | CC(C)CC(NC(=O)CNC(=O)c1cc(Cl)ccc1Cl)B1OC(=O)CC(CC(=O)O)(C(=O)O)O1 (configuration not stated) | 99.1% and 96.2% | 113% and 105% | 87.8% and 85.7% | 17% and 20.2% | 6.27% and 3.15% | 0.79% and 0.83% | 8.23 | – | – | – | – | – | – | – | – | – | – | – | –
3 | CC(C)c1c(-c2ccccc2)nc2c(C#N)c[nH]n2c1=O | – | – | – | – | 100% and 101% | 97.6% and 101% | < 5.00 | 102% and 93.6% | 106% and 98.2% | 102% and 105% | 65.2% and 70.4% | – | – | – | – | – | – | – | –
4 | CC1(C)CCC(CN2CCN(c3ccc(C(=O)NS(=O)(=O)c4ccc(NCC5CCOCC5)c([N+](=O)[O-])c4)c(Oc4cnc5[nH]ccc5c4)c3)CC2)=C(c2ccc(Cl)cc2)C1 | – | – | – | – | 105% and 108% | 114% | 5.69 and 5.70 | 110% and 108% | 98.1% and 94.9% | 20% and 19.2% | 0.32% and 0.33% | – | – | – | – | – | – | – | –
5 | CC1COCCN1c1cc(-c2ccnn2C)c2ccnc(-c3ccn[nH]3)c2n1 (configuration not stated) | – | – | 15.4% and 15.1% | 12.8% and 16.4% | 12.4% and 13% | 16.3% and 14.8% | > 8.50 | 17.2% and 17.7% | 17.8% and 18.7% | – | – | – | – | – | – | – | – | – | –
6 | CC1COCCN1c1cc(C2(S(C)(=N)=O)CC2)nc(-c2ccnc3[nH]ccc23)n1 (configuration not stated) | – | – | – | – | 104% and 96.3% | 102% and 99.3% | 6.22 and 6.17 | 73.6% and 77.7% | 31.6% and 35.1% | 13.4% and 16.8% | 12.6% and 11.3% | – | – | – | – | – | – | – | –
7 | CCN(c1cc(-c2ccc(CN3CCOCC3)cc2)cc(C(=O)NCc2c(C)cc(C)[nH]c2=O)c1C)C1CCOCC1 | – | – | – | – | – | – | 5.87 and 5.84 | – | – | – | – | 100% and 99.5% | 115% and 103% | 99% | 85.1% and 80.7% | 63.7% and 67.6% | 22.2% and 24.3% | – | –
8 | CC[C@@]1(O)C(=O)OCc2c1cc1n(c2=O)Cc2cc3c(CN(C)C)c(O)ccc3nc2-1 | 96.8% and 95.3% | 79.3% and 94.1% | 54.4% and 57.1% | 21.4% and 21.1% | 9.12% and 10.3% | 4.35% and 3.55% | 8.46 and 8.39 | – | – | – | – | – | – | – | – | – | – | – | –
9 | CCc1c2c(nc3ccc(O)cc13)-c1cc3c(c(=O)n1C2)COC(=O)[C@]3(O)CC | – | – | – | – | – | – | > 9.02 | – | – | – | – | 1.25% and 1.31% | 0.84% and 1.16% | 1.07% and 1.04% | 0.92% and 1.24% | – | – | 5.38% and 4.72% | 3.5% and 2.75%
10 | COc1cc(C2c3cc4c(cc3C(OC3OC5COC(C)OC5C(O)C3O)C3COC(=O)C23)OCO4)cc(OC)c1O (configuration not stated) | – | – | – | – | – | – | 7.40 and 7.28 | – | – | – | – | 91.1% and 92% | 57.8% and 69.4% | 26.8% and 28.4% | 17.8% and 16.7% | 8.57% and 7.24% | 5.06% and 4.06% | – | –
11 | COc1cc(Nc2ncc3c(n2)-c2ccc(Cl)cc2C(c2c(F)cccc2OC)=NC3)ccc1C(=O)O | – | – | 33% and 38.1% | 40.7% and 42.1% | 36% and 39.1% | 30.2% and 37.9% | > 8.50 | 27.7% and 29.6% | 16.1% and 17.5% | – | – | – | – | – | – | – | – | – | –
12 | COc1ccc([C@@H](O)c2cc(-c3ncnc4cc(N5CCOCC5)ccc34)c(F)cc2Cl)nn1 | – | – | – | – | 101% and 104% | 95.7% and 82.2% | 6.23 and 6.13 | 61.2% and 71.4% | 37.6% and 42.1% | 24.7% and 24.6% | 11.6% and 13.1% | – | – | – | – | – | – | – | –
13 | Cn1ncnc1C1c2n[nH]c(=O)c3cc(F)cc(c23)NC1c1ccc(F)cc1 (configuration not stated) | 86.8% and 103% | 102% and 101% | 94.5% and 96.3% | 93.9% and 94.8% | 85.9% and 88.3% | 82.3% and 83.5% | < 7.00 | – | – | – | – | – | – | – | – | – | – | – | –
14 | NC1CC1c1ccc(-c2cccc(O)c2)cc1 (configuration not stated) | – | – | – | – | – | 80.2% | – | 71.4% [middle of 24 runs] | 67.6% [middle of 25 runs] | 64.6% [middle of 25 runs] | 54.7% [middle of 25 runs] | – | – | – | – | – | – | – | –
15 | NC1CCC(NC2CC2c2ccccc2)CC1 (configuration not stated) | – | – | – | – | – | 65.7% [middle of 25 runs] | – | 56.6% and 63.5% | 58% [middle of 25 runs] | 57.4% [middle of 25 runs] | 54.2% [middle of 23 runs] | – | – | – | – | – | – | – | –
16 | NS(=O)(=O)OCC1CC(n2ccc3c(NC4CCc5ccccc54)ncnc32)CC1O (configuration not stated) | – | – | – | – | – | – | 7.79 and 7.74 | – | – | – | – | 81.2% and 90.5% | 15.7% and 18% | 2.87% and 3.52% | 1.94% and 1.72% | 1.98% and 1.67% | 1.78% and 1.54% | – | –
17 | Nc1ccccc1NC(=O)c1ccc(CNC(=O)OCc2cccnc2)cc1 | – | – | – | – | – | – | 7.60 and 7.55 | – | – | – | – | 67.9% and 65.7% | 45.2% and 49.2% | 31% and 31.7% | 17.2% and 19.8% | 4.09% and 5.39% | 0.29% and 0.27% | – | –
18 | Nc1ccn(C2OC(CO)C(O)C2(F)F)c(=O)n1 (configuration not stated) | – | – | – | – | – | – | > 9.02 | – | – | – | – | 6.12% and 5.67% | 5.81% and 5.6% | 8.04% and 6.06% | 6.84% and 5.56% | – | – | 39.2% and 33.5% | 12% and 10.8%
19 | Nc1ncn(C2CC(O)C(CO)O2)c(=O)n1 (configuration not stated) | – | – | 98.6% and 89% | 96.7% and 91.5% | 71.8% and 82.9% | 69.7% and 73.9% | < 6.00 | 63.4% and 63.6% | 55.4% and 58.2% | – | – | – | – | – | – | – | – | – | –
20 | Nc1ncn(C2CC(O)C(CO)S2)c(=O)n1 (configuration not stated) | – | – | – | – | – | – | 7.14 and 7.08 | – | – | – | – | 84% and 88.4% | 72.4% and 80.4% | 43.5% and 45.3% | 13.5% and 13.6% | – | – | 96.5% and 102% | 104% and 92.4%
21 | O=C(C=Cc1cccc(S(=O)(=O)Nc2ccccc2)c1)NO | – | – | – | – | – | – | > 8.02 and 7.89 | – | – | – | – | 47.6% and 52.8% | 41% and 44.1% | 28.8% and 32.3% | 18.1% and 25.8% | 0.52% and 1.26% | 0.15% | – | –
22 | O=C(C=Cn1cnc(-c2cc(C(F)(F)F)cc(C(F)(F)F)c2)n1)NNc1cnccn1 | – | – | 59.5% and 55.2% | 55.9% and 55% | 30.4% and 29.4% | 14.4% and 14.1% | 7.91 and 7.94 | 8.05% and 8.45% | 5.62% and 5.3% | – | – | – | – | – | – | – | – | – | –
23 | O=C(c1cc(Cc2n[nH]c(=O)c3ccccc23)ccc1F)N1CCN(C(=O)C2CC2)CC1 | – | – | – | – | 106% and 100% | 98.8% and 100% | 5.03 and 5.13 | 98.5% and 99.6% | 95.4% and 85.9% | 74.9% and 73% | 48.1% and 42.4% | – | – | – | – | – | – | – | –
